Source: patent publication US12233057B2, “Small molecules for inhibiting chemokine activity and/or cancer cells growth” (AlonBio Ltd., priority 2015, dated 2025)
Values after ≈ are worked out from the molar mass of the structure shown.

Columns and labels:
[1] = target: MIP3a (Homo sapiens, UniProt P78556); assay: Migration assay: CD4+ T-cells toward MIP3a (Transwell); type: cell-based; conditions: BKT300 at 78% purity, 50 μg/ml
Protocol: (§1) 600 μl of RPMI medium was added to the lower chambers of Transwell® transmigration plates, supplemented with 2 μg/ml of MIP3a, 100 ng/ml of SDF-1 or 10 ng/ml of MCP-1. The tested small molecule was added to the lower chambers at the indicated concentration, except in control samples. The MIP3a, SDF-1 or MCP-1 was incubated with the small molecule for 30 minutes at room temperature before the initiation of the migration assay. Following 30 minutes of incubation 2×10^5 immune cells were added to the upper chambers of the transmigration plates in a total volume of 100 μl. Cells which migrated within 3 hours to the bottom chamber of the Transwell® plates were counted using a FACScalibur™ flow cytometer.
To evaluate migration toward MIP3a, peripheral blood mononuclear cells (PBMCs) were isolated from heparinized venous blood by centrifugation over Ficoll Histopaque® 1077. CD4+ T cells were further isolated with RosetteSep™ human CD4+ T-cell Enrichment cocktail (StemCell Technologies Inc.), according to the manufacturer's instructions.
The 18 compounds uncovered by the screening assay were further tested for their ability, at final concentrations of 10 and 50 μg/ml, to inhibit the migration of human CD4+ T-cells toward MIP3a; and to inhibit the migration of immune cells in response to MCP-1 and SDF-1, using the procedures described in the Materials and Methods section hereinabove.

[2] = target: MCP-1 (Homo sapiens, UniProt P13500); assay: Migration assay: THP-1 cells towards MCP-1 (Transwell); type: cell-based; conditions: BKT300 at 78% purity
Protocol: as §1
To evaluate migration towards MCP-1, JTHP-1 cells were re-suspended in RPMI medium containing 1% fetal calf serum (FCS).

[3] = tested on: MV4-11 human acute myeloid leukemia cells; assay: Cancer cell viability assay, propidium iodide staining (FACS); type: cell-based
Protocol: (§2) The cancer cells were incubated in cell medium with 1% fetal calf serum (FCS) at a concentration of 2×10^5 cells/well at a final volume of 250 μl in 96-well plate. The tested small molecule was added to the cells at the indicated concentrations. The cells were incubated for 24 hours and the number of dead and viable cells was then evaluated by fluorescence-activated cell sorting (FACS), using propidium iodide (PI) staining. The IC50 of the small molecule-induced cell death was determined using GraphPad Prism software.
In order to assess the effect of BKT300 on cancer cells viability, the in vitro effect on MV4-11 human acute myeloid leukemia cells was evaluated. The MV4-11 cancer cells were incubated in RPMI cell medium with 1% fetal calf serum (FCS) at a concentration of 2×10^5 cells/well at a final volume of 250 μl in 96-well plate. BKT300 was added to the cells at the indicated concentrations. The cells were incubated for 24 hours and the number of dead and viable cells was then evaluated by fluorescence-activated cell sorting (FACS), using propidium iodide (PI) staining. The IC50 of […] cell death was determined using GraphPad Prism software.

[4] = tested on: Bjab human lymphoma cells; assay: as above; type: cell-based; conditions: BKT300 at 78% purity, 8.5 μg/ml
Protocol: as §2
(§3) The in vitro effect of BKT300 (at 78% purity) on cancer cell viability was further evaluated using a variety of additional cancer cell lines, using procedures as described hereinabove with respect to MV4-11 cells.

[5] = tested on: H345 human small cell lung cancer cells; assay: as above; type: cell-based; conditions: BKT300 at 78% purity, 8.5 μg/ml
Protocol: as §2, §3

[6] = tested on: H460 human large cell lung cancer cells; assay: as above; type: cell-based; conditions: BKT300 at 78% purity, 10 μg/ml
Protocol: as §2, §3

[7] = tested on: Jurkat human acute lymphoblastic leukemia cells; assay: as above; type: cell-based; conditions: BKT300 at 78% purity, 24 hours
Protocol: as §2, §3

[8] = tested on: RPMI human multiple myeloma cells; assay: as above; type: cell-based; conditions: BKT300 at 78% purity, 24 hours
Protocol: as §2, §3

[9] = tested on: Raji human lymphoma cells; assay: as above; type: cell-based; conditions: BKT300 at 78% purity
Protocol: as §2, §3

[10] = tested on: MV4-11 (FLT3-ITD) cells; assay: In vivo AML model: NSG mice transplanted with MV4-11 cells; conditions: BKT300 at 98% purity, 1 mg/Kg intraperitoneally, three consecutive days from day 21; day 25; anti human CD45
Protocol: The effect of BKT300 (at 98% purity) on the proliferation of AML cells in vivo was examined by treatment of NOD Scid gamma (NSG) mice transplanted with MV4-11 (FLT3-ITD) cells.
The mice were subjected to irradiation with 300 rad and on the following day were transplanted by IV injection with MV4-11 (FLT3-ITD) cells, 10×10^6 cells/mouse. 21 days following transplantation, the treated group was injected intraperitoneally with 1 mg/Kg of BKT300 (98% purity) per injection for three consecutive days. On day 25 following transplantation, mice were sacrificed and the survival of the human AML blasts in the blood, spleen and the bone marrow was evaluated using anti human CD45.

[11] = target: CDK11 (Inactive) (Homo sapiens, UniProt Q9BWU1); assay: LanthaScreen europium kinase binding assay; conditions: BKT300 at 78% purity
Protocol: (§4) In order to further characterize the effect of BKT300 on cell signaling, kinase profiling of BKT300 (at 78% purity) was performed (by the Life Technologies SelectScreen® Biochemical Profiling Lab) using a LanthaScreen® europium kinase binding assay to screen 440 kinases.
(§5) The principle of the LanthaScreen® assay is depicted in FIG. 13. Binding of an Alexa Fluor® conjugate or “tracer” to a kinase is detected by addition of a europium (Eu)-labeled anti-tag antibody. Binding of the tracer and antibody to a kinase results in a high degree of FRET, whereas displacement of the tracer with a kinase inhibitor results in a loss of FRET. The kinase tracers are based on ATP-competitive kinase inhibitors, making them suitable for detection of any compounds that bind to the ATP site. Inhibitors that bind the ATP site include both Type I kinase inhibitors, which bind solely to the ATP site, and Type II inhibitors (e.g., imatinib, sorafenib, BIRB-796), which bind to both the ATP site and a second site often referred to as the allosteric site.

[12] = target: DAPK2 (Homo sapiens, UniProt Q9UIK4); assay: LanthaScreen europium kinase binding assay; conditions: BKT300 at 78% purity
Protocol: as §4, §5

[13] = target: MELK (Homo sapiens, UniProt Q14680); assay: LanthaScreen europium kinase binding assay
Protocol: as §4, §5

[14] = target: SGK2 (Homo sapiens, UniProt Q9HBY8); assay: LanthaScreen europium kinase binding assay; conditions: BKT300 at 78% purity
Protocol: as §4, §5

[15] = target: STK17B (DRAK2) (Homo sapiens, UniProt O94768); assay: LanthaScreen europium kinase binding assay; conditions: BKT300 at 78% purity
Protocol: as §4, §5

Chain of MCP-1 (P13500 24-99): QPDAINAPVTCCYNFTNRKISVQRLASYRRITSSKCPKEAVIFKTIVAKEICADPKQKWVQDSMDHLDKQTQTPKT
Chain of MELK (Q14680 whole entry): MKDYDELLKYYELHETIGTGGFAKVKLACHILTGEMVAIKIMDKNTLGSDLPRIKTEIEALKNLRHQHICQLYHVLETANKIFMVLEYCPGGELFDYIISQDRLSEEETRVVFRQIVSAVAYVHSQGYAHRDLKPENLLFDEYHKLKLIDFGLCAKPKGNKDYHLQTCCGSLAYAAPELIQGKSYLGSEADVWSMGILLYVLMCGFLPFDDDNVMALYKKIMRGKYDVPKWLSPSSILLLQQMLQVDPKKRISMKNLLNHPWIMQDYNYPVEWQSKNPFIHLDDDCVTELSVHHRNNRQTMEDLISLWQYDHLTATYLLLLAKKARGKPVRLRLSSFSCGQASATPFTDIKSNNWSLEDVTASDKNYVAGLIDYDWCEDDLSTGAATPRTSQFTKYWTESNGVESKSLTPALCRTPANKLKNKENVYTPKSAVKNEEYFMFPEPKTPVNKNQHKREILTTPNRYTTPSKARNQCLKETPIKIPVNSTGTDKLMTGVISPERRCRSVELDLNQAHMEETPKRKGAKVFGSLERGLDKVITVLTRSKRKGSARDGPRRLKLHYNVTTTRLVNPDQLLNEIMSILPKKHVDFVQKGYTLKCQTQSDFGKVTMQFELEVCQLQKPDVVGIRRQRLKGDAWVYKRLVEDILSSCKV
Chain of STK17B (DRAK2) (O94768 whole entry): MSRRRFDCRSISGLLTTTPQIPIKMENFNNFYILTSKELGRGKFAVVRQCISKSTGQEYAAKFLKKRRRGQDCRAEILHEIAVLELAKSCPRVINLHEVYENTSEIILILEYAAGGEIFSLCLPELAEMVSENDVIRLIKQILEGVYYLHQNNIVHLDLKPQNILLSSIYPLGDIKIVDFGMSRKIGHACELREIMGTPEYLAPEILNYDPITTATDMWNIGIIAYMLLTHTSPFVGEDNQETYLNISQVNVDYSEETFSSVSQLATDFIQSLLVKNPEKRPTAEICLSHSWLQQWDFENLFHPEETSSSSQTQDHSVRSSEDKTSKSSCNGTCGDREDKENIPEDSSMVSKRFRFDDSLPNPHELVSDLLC
Chain of CDK11 (Inactive) (Q9BWU1 whole entry): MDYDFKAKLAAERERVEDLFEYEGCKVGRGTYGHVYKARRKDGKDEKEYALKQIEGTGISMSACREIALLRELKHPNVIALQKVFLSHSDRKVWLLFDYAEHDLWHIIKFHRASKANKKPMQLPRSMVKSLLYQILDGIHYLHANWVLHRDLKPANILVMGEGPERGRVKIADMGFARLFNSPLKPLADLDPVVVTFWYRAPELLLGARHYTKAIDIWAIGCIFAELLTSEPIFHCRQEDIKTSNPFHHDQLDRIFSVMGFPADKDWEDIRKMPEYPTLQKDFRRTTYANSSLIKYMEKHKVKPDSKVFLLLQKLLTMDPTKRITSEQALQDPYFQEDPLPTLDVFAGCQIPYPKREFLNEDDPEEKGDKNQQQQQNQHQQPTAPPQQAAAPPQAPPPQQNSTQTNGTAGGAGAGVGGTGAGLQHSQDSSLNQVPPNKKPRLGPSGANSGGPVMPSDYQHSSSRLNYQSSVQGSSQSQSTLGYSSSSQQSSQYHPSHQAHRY
Chain of SGK2 (Q9HBY8 whole entry): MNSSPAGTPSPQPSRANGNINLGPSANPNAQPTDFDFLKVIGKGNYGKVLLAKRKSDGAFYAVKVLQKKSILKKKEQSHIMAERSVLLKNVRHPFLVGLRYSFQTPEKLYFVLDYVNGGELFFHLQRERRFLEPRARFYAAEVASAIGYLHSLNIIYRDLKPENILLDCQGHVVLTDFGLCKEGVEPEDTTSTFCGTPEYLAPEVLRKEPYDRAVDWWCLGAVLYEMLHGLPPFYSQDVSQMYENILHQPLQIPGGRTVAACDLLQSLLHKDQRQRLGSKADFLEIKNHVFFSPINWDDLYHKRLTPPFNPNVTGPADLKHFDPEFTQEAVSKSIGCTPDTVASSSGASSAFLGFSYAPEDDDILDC
Chain of MIP3a (P78556 27-96): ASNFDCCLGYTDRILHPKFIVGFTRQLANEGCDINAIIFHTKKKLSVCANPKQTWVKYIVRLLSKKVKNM
Chain of DAPK2 (Q9UIK4 whole entry): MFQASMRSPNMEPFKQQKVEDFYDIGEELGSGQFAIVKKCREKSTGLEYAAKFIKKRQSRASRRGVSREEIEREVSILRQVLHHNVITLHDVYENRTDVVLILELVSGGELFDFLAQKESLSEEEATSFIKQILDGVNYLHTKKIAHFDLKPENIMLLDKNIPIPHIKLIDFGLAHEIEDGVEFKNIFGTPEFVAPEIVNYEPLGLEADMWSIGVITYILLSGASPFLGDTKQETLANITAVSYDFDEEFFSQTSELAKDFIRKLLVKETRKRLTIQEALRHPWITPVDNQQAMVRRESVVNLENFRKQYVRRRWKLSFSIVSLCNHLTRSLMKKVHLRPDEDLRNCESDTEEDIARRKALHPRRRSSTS

CCCCCc1cc2cc(O)cc(Oc3c(O)cc(O)cc3CCCCC)c2c(=O)o1 [BKT300]
Inhibition of CD4+ T-cell migration towards MIP3a [1]: completely inhibited | Effect on migration of THP-1 cells towards MCP-1 ([2]; 10 μg/ml): no apparent effect | Inhibition of migration of THP-1 cells towards MCP-1 ([2]; 50 μg/ml): strong inhibition | Concentration at which cell death of MV4-11 cells is induced (as low as; lowest tested) ([3]; BKT300 at 78% purity, 24 hours): ≤ 2 µg/mL | Degree of cell death of MV4-11 cells, 98% purity compared with 78% purity ([3]; BKT300 at 98% purity, 4.25 μg/ml): considerably greater degree of cell death | Inducing cell death of MV4-11 cells, 98% purity compared with 78% purity ([3]; BKT300 at 98% purity, 2.125, 4.25, 8.5 μg/ml): significantly more effective | Cell death of Bjab cells [4]: about 30% | Cell death of H345 cells [5]: over 90% | Cell death of H460 cells [6]: about 80% | Concentration at which cell death of Jurkat cells is induced (as low as; lowest tested) [7]: ≤ 2 µg/mL | IC50 ([7]; Homo sapiens, Jurkat, read-out: IC50 for induced death of Jurkat cells): 3.5 µg/mL (≈ 8.21 µM) | Concentration at which cell death of RPMI cells is induced (as low as; lowest tested) [8]: ≤ 2 µg/mL | Cell death of Raji cells ([9]; 4.25 μg/ml): slight cell death | Cell death of Raji cells ([9]; 8.5 μg/ml): about 30% | Number and percentage of AML cells in the bone marrow [10]: dramatically reduced | % Inhibition [11]: 57% | % Inhibition [12]: 65% | % Inhibition ([13]; BKT300 at 78% purity): 41% | Affinity of BKT300 to the kinase ([13]; based on the kinase screening assay summarized in Table 2, relatively low): few tens | % Inhibition [14]: 43% | % Inhibition [15]: 107%
